# Source: ChEMBL document CHEMBL1201862, “PubChem BioAssay data set” (2004)
# Calls of active or inactive are those of the source. Cut-off read from the data, not from the text of the source: actives have a measured IC50 and inactives only a lower limit.
# Target: Envelope glycoprotein gp160 (Human immunodeficiency virus 1, UniProt Q6QLK5)
# Assay: inhibitors of HIV fusion peptide binding, primary screen, biochemical, uHTS, fluorescence dequenching (AID 1986)
# Sequence of Envelope glycoprotein gp160 (Q6QLK5 whole entry, the tested form may be a part): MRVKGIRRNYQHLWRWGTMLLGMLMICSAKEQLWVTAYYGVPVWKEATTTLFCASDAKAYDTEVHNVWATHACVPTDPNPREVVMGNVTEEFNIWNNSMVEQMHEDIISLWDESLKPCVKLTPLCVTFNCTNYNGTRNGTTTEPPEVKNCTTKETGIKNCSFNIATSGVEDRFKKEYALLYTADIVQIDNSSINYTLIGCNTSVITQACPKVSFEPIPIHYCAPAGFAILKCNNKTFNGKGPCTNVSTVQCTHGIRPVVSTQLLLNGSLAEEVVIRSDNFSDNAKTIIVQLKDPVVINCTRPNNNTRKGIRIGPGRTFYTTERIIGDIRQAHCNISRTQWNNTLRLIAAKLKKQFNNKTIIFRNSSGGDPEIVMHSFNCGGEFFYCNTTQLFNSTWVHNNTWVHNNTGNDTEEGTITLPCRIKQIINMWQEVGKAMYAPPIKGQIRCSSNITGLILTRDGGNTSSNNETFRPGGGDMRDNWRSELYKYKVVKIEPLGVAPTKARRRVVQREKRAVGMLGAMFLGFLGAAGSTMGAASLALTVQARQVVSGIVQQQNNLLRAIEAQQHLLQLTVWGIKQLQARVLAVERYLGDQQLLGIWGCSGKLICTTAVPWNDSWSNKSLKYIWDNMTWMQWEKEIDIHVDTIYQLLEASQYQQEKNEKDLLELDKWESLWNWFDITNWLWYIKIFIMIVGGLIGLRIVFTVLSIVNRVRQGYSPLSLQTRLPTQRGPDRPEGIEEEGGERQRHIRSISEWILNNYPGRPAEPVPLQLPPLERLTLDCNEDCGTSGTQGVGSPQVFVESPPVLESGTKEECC
compound,measurement,value
COc1cc(/C=C2\SC(=O)N(CC(=O)Nc3cccc(C)c3)C2=O)cc([N+](=O)[O-])c1O,IC50,23.1 µM (active)
